Laboratory results from patent US20020090341A1, “Method” (NYCOMED IMAGING AS, priority 1997, published 2002).
Read-outs that look alike come from different tables or passages of the source.

Key:
[1] = system: regionally ischemic heart; details: for Myocardial enhancement: normal myocardium
Procedure: Sprague-Dawley rats (250-300 g) were anaesthetised with 50 mg/kg sodium pentobarbital and mechanically ventilated after tracheostomy. For bolus injection of the contrast agent, a catheter was placed in the femoral vein. In order to produce regional ischemia, left thoracotomy was performed followed by occlusion of the anterior branch of the left coronary artery. The potential of various doses of MnDPDP in demarcating regional ischemia was determined. Four groups of animals were designed, each group (n=7-8 rats) received one bolus dose (1 ml/kg) of MnDPDP (0.005, 0.010, 0.020, or 0.040 mmol/kg). MR imaging was performed between 15-20 mins after acute coronary occlusion.
ECG-gated inversion recovery echoplanar images were acquired using a GE Omega 2.0 T system and a home-built 5.6 cm birdcage imaging coil. A blipped EPI of 64×64 points to define a […] (FOV) of 40×40 mm was used. TE was set to 10 msec by acquiring an asymmetric echo. Inversion recovery was accomplished using a composite non-selective inversion pulse which was carefully optimized prior to administration of the contrast medium. Shortly after the occlusion of the coronary vessel (15-25 mins), IR EP imaging was used to monitor bolus passage of MnDPDP through the regionally ischemic heart. Fully relaxed T1-sensitive inversion recovery EP images (TR=5 s) were acquired in a set of 16 images. Then, 32 inversion-recovery echoplanar images every 2 secs were obtained with inversion time of 700 msecs (to nullify myocardial signal) to monitor the dynamic T1 changes in myocardial signal intensity during the passage of the contrast medium. Changes in myocardial signal as a function of time were plotted. ROIs were obtained from non-ischemic and ischemic myocardium as well as from LV chamber blood. ROIs were determined on images acquired post-contrast injection, where the ischemic region is clearly defined. Alterations in signal intensity were referred to that of fully relaxed intensity (=100%).
At the conclusion of the imaging protocol, the presence of coronary occlusion and acute ischemia was confirmed at postmortem by injecting 0.5 ml/kg phthalocyanine blue dye intravenously. Blue dye was then allowed to circulate for 3 mins before the heart was excised.

[2] = system: ex vivo guinea pig hearts; details: for T1 relaxation time: LV tissue, 0.234 T
Procedure: Guinea pigs (450-500 g) were anaesthetised with sodium pentobarbital (intraperiotenal injection 100 mg). Hearts were rapidly excised and connected to the aortic cannula of a standard Langendorff perfusion system with conditions preset at 37° C. Perfusion with glucose-containing Krebs Henseleit's bicarbonate buffer (Krebs buffer) was maintained in the constant flow mode during the entire experiment by use of a finely adjustable pump. Under normal perfusion conditions coronary flow rate (CFR) was […] and during global, low flow ischemia 0.25 ml/min (92% reduction of normal CFR). Left ventricular (LV) developed pressure (LVDP) was measured by use of a LV fluid-filled balloon connected to a pressure transducer and recording device. At the end of the experiments excised samples from the LV were freeze-clamped, freeze-dried and prepared for analysis of LV contents of Mn metal by atomic absorbtion spectrophotometry and of ATP by high pressure liquid chromatography. Fresh, non-clamped LV samples were taken for immediate (within 30 min) measurements of tissue longitudinal (T1) relaxation time by use of a Bruker Minispec PC 110 spectrometer operating at 0.234 T and at a proton frequency of 10 MHz.
In normal perfusion experiments (series A) hearts were subjected to a 20 min control period before being perfused for 5 min with ascending concentrations (0-3000 μM) of MnDPDP present in the Krebs buffer. This was followed by 5 min perfusion with buffer only to ensure an effective washout of residual extracellular MnDPDP. In global ischemia experiments hearts were perfused at low flow (92% CFR reduction) with normal Krebs buffer. After different durations (0, 15, 30, 90, and 120 min) of ischemia MnDPDP (1000 μM, 3000 μM) was included in the buffer for a final 5 min period of low flow ischemia. The experiments were ended by 5 min perfusion at normal flow with anoxic and calcium-free Krebs buffer to ensure washout of residual extracellular MnDPDP without reactivating normal cardiac function. In the results (series B) the ischemia durations are presented as 0-5 min, 15-20 min, 30-35 min, 90-95 min, and 120-125 min.

[3] = MnDPDP 300 μM, versus control hearts
[4] = MnDPDP 1000 μM, versus control hearts
[5] = MnDPDP 3000 μM, versus control hearts

## Cc1ncc(COP(=O)(O)O)c(CN(CCN(CC(=O)[O-])Cc2c(COP(=O)(O)O)cnc(C)c2O)CC(=O)[O-])c1O.[Mn+2] [MnDPDP, manganese (II) chelate of N,N′-bis-(pyridoxal-5-phosphate)-ethylenediamine-N,N′-diacetic acid]
[1]; 0.005 mmol/kg
  delineation of the ischemic region: insufficient to provide clear delineation of the ischemic region
[1]; 0.010, 0.020, and 0.040 mmol/kg
  delineation of the ischemic region: the ischemic region was identified as a region of very low signal
[1]; 5 micromole/kg bolus
  Myocardial enhancement: 23±2 % of fully relaxed images
[1]; 10 micromole/kg bolus
  Myocardial enhancement: 28±2 % of fully relaxed images
[1]; 20 micromole/kg bolus
  Myocardial enhancement: 34±5 % of fully relaxed images
[1]; 40 micromole/kg bolus
  Myocardial enhancement: 48±4 % of fully relaxed images
[2]; MnDPDP 30 μM 5 min, then 5 min washout, n = 6, mean (SD)
  Tissue Mn content: 11.0(1.5) μmole/100 g dry wt
[2]; MnDPDP 30 μM, n = 6, mean (SD)
  T1 relaxation time: 871(93) msec
[2]; MnDPDP 100 μM 5 min, then 5 min washout, n = 6, mean (SD)
  Tissue Mn content: 12.2(2.4) μmole/100 g dry wt
[2]; MnDPDP 100 μM, n = 6, mean (SD)
  T1 relaxation time: 808(81) msec
[2]; MnDPDP 300 μM
  depression of LVDP: 10%
[2]; MnDPDP 300 μM 5 min, then 5 min washout, n = 6, mean (SD)
  Tissue Mn content: 23.2(4.1) μmole/100 g dry wt
[2]; [3]
  fold increase in Mn content: 5-6 fold
  reduction in T1: 40%
[2]; MnDPDP 300 μM, n = 6, mean (SD)
  T1 relaxation time: 619(18) msec
[2]; MnDPDP 1000 μM 5 min, then 5 min washout, n = 6, mean (SD)
  Tissue Mn content: 45.4(10.8) μmole/100 g dry wt
[2]; MnDPDP 1000 μM at onset (0-5 min) of ischemia
  factor by which tissue Mn content was raised above the control level in non-treated hearts: 2-3
[2]; MnDPDP 1000 μM during last 5 min, ischemia 0-5 min, n = 4, mean (SD)
  Tissue Mn content: 10.5(3.6) μmole/100 g dry wt
[2]; MnDPDP 1000 μM during last 5 min, ischemia 15-20 min, n = 4, mean (SD)
  Tissue Mn content: 9.9(2.3) μmole/100 g dry wt
[2]; MnDPDP 1000 μM during last 5 min, ischemia 30-35 min, n = 4, mean (SD)
  Tissue Mn content: 4.3(1.6) μmole/100 g dry wt
[2]; MnDPDP 1000 μM during last 5 min, ischemia 90-95 min, n = 4, mean (SD)
  Tissue Mn content: 5.7(2.4) μmole/100 g dry wt
[2]; MnDPDP 1000 μM during last 5 min, ischemia 120-125 min, n = 4, mean (SD)
  Tissue Mn content: 5.6(2.3) μmole/100 g dry wt
[2]; [4]
  fold rise in Mn content: 11 fold
  reduction in T1 values: 55%
[2]; MnDPDP 1000 μM, n = 6, mean (SD)
  T1 relaxation time: 461(85) msec
[2]; MnDPDP 3000 μM 5 min, then 5 min washout, n = 6, mean (SD)
  Tissue Mn content: 70.4(14.9) μmole/100 g dry wt
[2]; MnDPDP 3000 μM at onset (0-5 min) of ischemia
  factor by which tissue Mn content was raised above the control level in non-treated hearts: 4-5
[2]; MnDPDP 3000 μM during last 5 min, ischemia 0-5 min, n = 4, mean (SD)
  Tissue Mn content: 16.5(2.4) μmole/100 g dry wt
[2]; MnDPDP 3000 μM during last 5 min, ischemia 15-20 min, n = 4, mean (SD)
  Tissue Mn content: 12.9(4.0) μmole/100 g dry wt
[2]; MnDPDP 3000 μM during last 5 min, ischemia 30-35 min, n = 4, mean (SD)
  Tissue Mn content: 6.0(2.2) μmole/100 g dry wt
[2]; MnDPDP 3000 μM during last 5 min, ischemia 90-95 min, n = 4, mean (SD)
  Tissue Mn content: 7.2(2.8) μmole/100 g dry wt
[2]; [5]
  fold rise in Mn content: 17 fold
  reduction in T1 values: 70%
[2]; MnDPDP 3000 μM, n = 6, mean (SD)
  T1 relaxation time: 341(46) msec
[2]; Table 1 versus Table 3
  tissue Mn contents, normal perfusion conditions relative to early ischemic conditions (0-5 min): approximately 4 times
[2]; following 5 min of MnDPDP washout
  LVDP after washout: returns rapidly to control values
[2]; higher concentrations of MnDPDP
  LVDP during perfusion: falls rapidly
[2]; ischemic durations of 30-35 min, 90-95 min, and 120-125 min
  tissue Mn content compared with normally perfused non-treated hearts: not significantly different
